According to US12668763B2, “Co-culturing device, motor neuron culturing device, multi-well plate, fabrication method of in vitro evaluation model of neuromuscular disease, and screening method of therapeutic agent against neuromuscular disease” (priority 2019, dated 2026):

Tested on: motor neuron / skeletal muscle tissue (neuromuscular junction) of the evaluation model
Test: Contraction of skeletal muscle tissue caused by stimulation of motor neurons in the evaluation model (device a), moving-image analysis
Format: cell-based, human

SMILES	contraction of a skeletal muscle tissue after addition of the drug
N[C@@H](CCC(=O)O)C(=O)O [glutamic acid, Glutamic acid]	causes contraction of a skeletal muscle tissue
NC1=N[C@H](O)[C@H]2[C@H]3O[C@]4(O)O[C@@H]([C@@H](O)[C@@]2(N1)[C@@H]4O)[C@]3(O)CO [tetrodotoxin]	stops contraction of a skeletal muscle tissue
